Assay results reported in patent publication US10328092B2, “Methods and compositions for treatment of drug addiction” (The Royal Institution for the Advancement of Learning / …, priority 2015, dated 2019).

Test system: TNFα mRNA
Type: in vivo, mouse
Method: For tissue, total RNA from the ventral striatum was extracted and isolated by RNAqueous-4PCR total RNA isolation kit (Ambion, AM1914), according to manufacturer's instructions. For microglia and astrocyte cultures, total RNA was isolated by RNeasy kit (Qiagen, 74136). For all sample types, 0.5 μg of total RNA was used for cDNA synthesis with Quantitect Reverse Transcription Kit (Qiagen, 205313), and quantitative RT-PCR was performed with Fast SYBR-Green Master Mix (Applied Biosystems) detected by StepOne Plus RealTime PCR system (Applied Biosystems). The sequences of qPCR primers used for mRNA quantification in this study were obtained from Integrated DNA Technologies, and are as follows: mouse TNFα forward, […] (SEQ ID NO: 1) [200 nM]; mouse TNFα reverse, […] (SEQ ID NO: 2) [200 nM]; mouse GAPDH forward, […] (SEQ ID NO: 3) [300 nM]; mouse GAPDH reverse, […] (SEQ ID NO: 4) [300 nM]; rat TNFα forward, […] (SEQ ID NO: 1) [600 nM]; rat TNFα reverse, […] […] After 40 cycles, the Ct values were determined. To normalize the samples, ΔCt between TNFα and GADPH or cyclophilin Ct values was calculated. The x-fold difference in expression between the different treatments was then determined by subtraction of the ΔCt values and termed ΔΔCt. Finally, the total change was calculated as 2-ΔΔct and the relative amount compared with control samples was deducted.

With `COC(=O)[C@H]1[C@@H](OC(=O)c2ccccc2)C[C@@H]2CC[C@H]1N2C` [cocaine] the “increase of TNFα mRNA in microglia cells” value (5 daily injections of cocaine, striatum CD11b+ fraction) was about 2.5 fold and the “decrease in TNFα mRNA in non-microglial cells” value (five daily cocaine treatments, other striatal cell types) was 3.26±0.21 fold.
